≈ marks a conversion by molar mass, not a printed value. Each block holds one compound with its values, some of them ahead of it.
Columns and labels:
Acinetobacter baumannii [1] = test: Antimicrobial activity against Acinetobacter baumannii AB1902 assessed as increase in absorbance incubated for 20 to 22 hrs; format: functional; conditions: time 20-22 hrs
Staphylococcus aureus [2] = test: Antimicrobial activity against Staphylococcus aureus 11011 assessed as increase in absorbance incubated for 20 to 22 hrs; format: functional; conditions: time 20-22 hrs
Pseudomonas aeruginosa [3] = test: Antimicrobial activity against Pseudomonas aeruginosa 25349 assessed as increase in absorbance incubated for 20 to 22 hrs; format: functional; conditions: time 20-22 hrs
Acinetobacter baumannii [4] = test: Antimicrobial activity against Acinetobacter baumannii AB1901 assessed as increase in absorbance incubated for 20 to 22 hrs; format: functional; conditions: time 20-22 hrs
RAW264.7 = test: Cytotoxicity against mouse RAW264.7 cells assessed as cell death measured after 18 to 24 hrs by MTT assay; format: functional; conditions: time 18-24 hrs
[5] = Cytotoxicity against porcine IPEC-J2 cells assessed as cell death measured after 18 to 24 hrs by MTT assay; format: functional; conditions: Sus scrofa, time 18-24 hrs
Salmonella typhimurium [6] = test: Antimicrobial activity against Salmonella typhimurium 7731 assessed as increase in absorbance incubated for 20 to 22 hrs; format: functional, Salmonella enterica subsp. enterica serovar Typhimurium; conditions: Salmonella enterica, time 20-22 hrs
Escherichia coli [7] = test: Antimicrobial activity against Escherichia coli ATCC 25922 assessed as increase in absorbance incubated for 20 to 22 hrs; format: functional; conditions: time 20-22 hrs
Escherichia coli [8] = test: Antimicrobial activity against Escherichia coli K88 assessed as increase in absorbance incubated for 20 to 22 hrs; format: functional; conditions: time 20-22 hrs
HEK-293T = test: Cytotoxicity against human HEK293T cells assessed as cell death measured after 18 to 24 hrs by MTT assay; format: functional; conditions: time 18-24 hrs
Staphylococcus aureus [9] = test: Antimicrobial activity against Staphylococcus aureus 29213 assessed as increase in absorbance incubated for 20 to 22 hrs; format: functional; conditions: time 20-22 hrs
Enterococcus faecalis = test: Antimicrobial activity against Enterococcus faecalis 29212 assessed as increase in absorbance incubated for 20 to 22 hrs; format: functional; conditions: time 20-22 hrs
Salmonella typhimurium [10] = test: Antimicrobial activity against Salmonella typhimurium 14028 assessed as increase in absorbance incubated for 20 to 22 hrs; format: functional, Salmonella enterica subsp. enterica serovar Typhimurium; conditions: Salmonella enterica, time 20-22 hrs
Staphylococcus aureus [11] = test: Antimicrobial activity against Staphylococcus aureus 25923 assessed as increase in absorbance incubated for 20 to 22 hrs; format: functional; conditions: time 20-22 hrs
Pseudomonas aeruginosa [12] = test: Antimicrobial activity against Pseudomonas aeruginosa 27853 assessed as increase in absorbance incubated for 20 to 22 hrs; format: functional; conditions: time 20-22 hrs
[13] = Hemolytic activity in healthy human RBC assessed as hemolysis incubated for 1 hr by microplate reader; format: toxicity, cell-based; conditions: erythrocyte
Escherichia coli [14] = test: Antimicrobial activity against Escherichia coli K99 assessed as increase in absorbance incubated for 20 to 22 hrs; format: functional; conditions: time 20-22 hrs
[15] = test system: Staphylococcus epidermidis; test: Antimicrobial activity against Staphylococcus epidermidis 12228 assessed as increase in absorbance incubated for 20 to 22 hrs; format: functional; conditions: time 20-22 hrs
Staphylococcus aureus [16] = test: Antimicrobial activity against methicillin-resistant Staphylococcus aureus 43300 assessed as increase in absorbance incubated for 20 to 22 hrs; format: functional; conditions: time 20-22 hrs

SMILES: CN[C@H](CC(C)C)C(=O)N[C@H]1C(=O)N[C@@H](CC(N)=O)C(=O)N[C@H]2C(=O)N[C@H]3C(=O)N[C@H](C(=O)N[C@H](C(=O)O)c4cc(O)cc(O)c4-c4cc3ccc4O)[C@H](O)c3ccc(c(Cl)c3)Oc3cc2cc(c3O[C@@H]2O[C@H](CO)[C@@H](O)[C@H](O)[C@H]2O[C@H]2C[C@](C)(N)[C@H](O)[C@H](C)O2)Oc2ccc(cc2Cl)[C@H]1O [VANCOMYCIN]
MIC (Acinetobacter baumannii [1]): > 64 µM | MIC (Staphylococcus aureus [2]): > 64 µM | MIC (Pseudomonas aeruginosa [3]): > 64 µM | MIC (Acinetobacter baumannii [4]): 32 µM (≈ 46.4 µg/mL)

SMILES: CCCCCCCCCCCC(=O)NCCCC[C@H](N)C(=O)NCC(=O)NCC(=O)NCC(=O)N[C@H](CCCNC(=N)N)C(=O)N[C@@H](CCCNC(=N)N)C(=O)N[C@@H](CCCNC(=N)N)C(=O)N1CCC[C@H]1C(=O)N[C@@H](CSSC[C@H](NC(=O)[C@@H]1CCCN1C(=O)[C@H](CCCNC(=N)N)NC(=O)[C@H](CCCNC(=N)N)NC(=O)[C@@H](CCCNC(=N)N)NC(=O)CNC(=O)CNC(=O)CNC(=O)[C@@H](N)CCCCNC(=O)CCCCCCCCCCC)C(=O)O)C(=O)O
IC10 (RAW264.7): 64 µM | IC10 [5]: 32 µM | MIC (Salmonella typhimurium [6]): 32 µM (≈ 74.7 µg/mL) | MIC (Escherichia coli [7]): 8 µM (≈ 18.7 µg/mL) | MIC (Escherichia coli [8]): 16 µM (≈ 37.4 µg/mL) | IC10 (HEK-293T): 128 µM | MIC (Staphylococcus aureus [9]): 32 µM (≈ 74.7 µg/mL) | MIC (Enterococcus faecalis): 32 µM (≈ 74.7 µg/mL) | MIC (Salmonella typhimurium [10]): 32 µM (≈ 74.7 µg/mL) | MIC (Staphylococcus aureus [11]): 32 µM (≈ 74.7 µg/mL) | MIC (Pseudomonas aeruginosa [12]): 8 µM (≈ 18.7 µg/mL) | HC10 [13]: 64 µM | MIC (Escherichia coli [14]): 32 µM (≈ 74.7 µg/mL) | MIC [15]: 32 µM (≈ 74.7 µg/mL) | MIC (Staphylococcus aureus [16]): 32 µM (≈ 74.7 µg/mL)

SMILES: CCCCCCCC(=O)NCCCC[C@H](N)C(=O)NCC(=O)NCC(=O)NCC(=O)N[C@H](CCCNC(=N)N)C(=O)N[C@@H](CCCNC(=N)N)C(=O)N[C@@H](CCCNC(=N)N)C(=O)N1CCC[C@H]1C(=O)N[C@@H](CSSC[C@H](NC(=O)[C@@H]1CCCN1C(=O)[C@H](CCCNC(=N)N)NC(=O)[C@H](CCCNC(=N)N)NC(=O)[C@@H](CCCNC(=N)N)NC(=O)CNC(=O)CNC(=O)CNC(=O)[C@@H](N)CCCCNC(=O)CCCCCCC)C(=O)O)C(=O)O
IC10 (RAW264.7): 256 µM | IC10 [5]: 256 µM | MIC (Salmonella typhimurium [6]): 4 µM (≈ 8.89 µg/mL) | MIC (Escherichia coli [7]): 2 µM (≈ 4.45 µg/mL) | MIC (Escherichia coli [8]): 4 µM (≈ 8.89 µg/mL) | IC10 (HEK-293T): 256 µM | MIC (Staphylococcus aureus [9]): 32 µM (≈ 71.1 µg/mL) | MIC (Enterococcus faecalis): 64 µM (≈ 142 µg/mL) | MIC (Salmonella typhimurium [10]): 4 µM (≈ 8.89 µg/mL) | MIC (Staphylococcus aureus [11]): 32 µM (≈ 71.1 µg/mL) | MIC (Pseudomonas aeruginosa [12]): 4 µM (≈ 8.89 µg/mL) | HC10 [13]: 256 µM | MIC (Escherichia coli [14]): 4 µM (≈ 8.89 µg/mL) | MIC [15]: 64 µM (≈ 142 µg/mL) | MIC (Staphylococcus aureus [16]): 32 µM (≈ 71.1 µg/mL)

SMILES: CCCCCCCC(=O)NCCCC[C@H](NC(=O)[C@@H](N)CS)C(=O)NCC(=O)NCC(=O)NCC(=O)N[C@H](CCCNC(=N)N)C(=O)N[C@@H](CCCNC(=N)N)C(=O)N[C@@H](CCCNC(=N)N)C(=O)N1CCC[C@H]1C(=O)O
IC10 (RAW264.7): 256 µM | IC10 [5]: 256 µM | MIC (Salmonella typhimurium [6]): 128 µM (≈ 142 µg/mL) | MIC (Escherichia coli [7]): 64 µM (≈ 71.2 µg/mL) | MIC (Escherichia coli [8]): 64 µM (≈ 71.2 µg/mL) | IC10 (HEK-293T): 256 µM | MIC (Staphylococcus aureus [9]): 128 µM (≈ 142 µg/mL) | MIC (Enterococcus faecalis): 128 µM (≈ 142 µg/mL) | MIC (Salmonella typhimurium [10]): 128 µM (≈ 142 µg/mL) | MIC (Staphylococcus aureus [11]): 128 µM (≈ 142 µg/mL) | MIC (Pseudomonas aeruginosa [12]): 64 µM (≈ 71.2 µg/mL) | HC10 [13]: 256 µM | MIC (Escherichia coli [14]): 128 µM (≈ 142 µg/mL) | MIC [15]: 128 µM (≈ 142 µg/mL) | MIC (Staphylococcus aureus [16]): 128 µM (≈ 142 µg/mL)

SMILES: CCCCCCCCCC(=O)NCCCC[C@H](N)C(=O)NCC(=O)NCC(=O)NCC(=O)N[C@H](CCCNC(=N)N)C(=O)N[C@@H](CCCNC(=N)N)C(=O)N[C@@H](CCCNC(=N)N)C(=O)N1CCC[C@H]1C(=O)N[C@@H](CS)C(=O)O
IC10 (RAW264.7): 256 µM | IC10 [5]: 256 µM | MIC (Salmonella typhimurium [6]): 32 µM (≈ 36.5 µg/mL) | MIC (Escherichia coli [7]): 16 µM (≈ 18.2 µg/mL) | MIC (Escherichia coli [8]): 16 µM (≈ 18.2 µg/mL) | IC10 (HEK-293T): 256 µM | MIC (Staphylococcus aureus [9]): 32 µM (≈ 36.5 µg/mL) | MIC (Enterococcus faecalis): 32 µM (≈ 36.5 µg/mL) | MIC (Salmonella typhimurium [10]): 16 µM (≈ 18.2 µg/mL) | MIC (Staphylococcus aureus [11]): 32 µM (≈ 36.5 µg/mL) | MIC (Pseudomonas aeruginosa [12]): 8 µM (≈ 9.12 µg/mL) | HC10 [13]: 256 µM | MIC (Escherichia coli [14]): 16 µM (≈ 18.2 µg/mL) | MIC [15]: 32 µM (≈ 36.5 µg/mL) | MIC (Staphylococcus aureus [16]): 32 µM (≈ 36.5 µg/mL)

SMILES: CCCCCCCC(=O)NCCCC[C@H](NC(=O)[C@@H](N)CSSC[C@H](N)C(=O)N[C@@H](CCCCNC(=O)CCCCCCC)C(=O)NCC(=O)NCC(=O)NCC(=O)N[C@H](CCCNC(=N)N)C(=O)N[C@@H](CCCNC(=N)N)C(=O)N[C@@H](CCCNC(=N)N)C(=O)N1CCC[C@H]1C(=O)O)C(=O)NCC(=O)NCC(=O)NCC(=O)N[C@H](CCCNC(=N)N)C(=O)N[C@@H](CCCNC(=N)N)C(=O)N[C@@H](CCCNC(=N)N)C(=O)N1CCC[C@H]1C(=O)O
IC10 (RAW264.7): 256 µM | IC10 [5]: 256 µM | MIC (Salmonella typhimurium [6]): 16 µM (≈ 35.6 µg/mL) | MIC (Escherichia coli [7]): 8 µM (≈ 17.8 µg/mL) | MIC (Escherichia coli [8]): 8 µM (≈ 17.8 µg/mL) | IC10 (HEK-293T): 256 µM | MIC (Staphylococcus aureus [9]): 128 µM (≈ 285 µg/mL) | MIC (Enterococcus faecalis): 128 µM (≈ 285 µg/mL) | MIC (Salmonella typhimurium [10]): 16 µM (≈ 35.6 µg/mL) | MIC (Staphylococcus aureus [11]): 128 µM (≈ 285 µg/mL) | MIC (Pseudomonas aeruginosa [12]): 16 µM (≈ 35.6 µg/mL) | HC10 [13]: 256 µM | MIC (Escherichia coli [14]): 8 µM (≈ 17.8 µg/mL) | MIC [15]: 128 µM (≈ 285 µg/mL) | MIC (Staphylococcus aureus [16]): 128 µM (≈ 285 µg/mL)

MIC (Acinetobacter baumannii [1]): > 64 µM | MIC (Staphylococcus aureus [2]): > 64 µM | MIC (Pseudomonas aeruginosa [3]): > 64 µM | MIC (Acinetobacter baumannii [4]): 64 µM
SMILES: CC1(C)S[C@@H]2[C@H](NC(=O)Cc3ccccc3)C(=O)N2[C@H]1C(=O)O [PENICILLIN G SODIUM]

Source: ChEMBL document CHEMBL6087476, “Positive Charge-Concentrated Dimeric Lipopeptides with Enhanced Protease Resistance: A Potential Solution for Systemic Bacterial Infections” (J Med Chem, 2025)
